Measured values taken from paper PMC10647090, “Structure-Based Discovery of Mouse Trace Amine-Associated Receptor 5 Antagonists” (Journal of Chemical Information and Modeling, 2023).
Entries after “also recorded” stand apart in the source; their conditions may differ. Like-named read-outs stand apart in the source and are kept apart here. Each block holds one compound with its values, some of them ahead of it.

Key:
mTAAR5 [1] = target: T1, mTAAR5 (Mus musculus, UniProt Q5QD14); set-up: method as in PMID 29713997; conditions: training set inactives; cited from earlier work
T1 construct: rho tag (rhodopsin-derived tag) (N); expressed in transfected cells; host or cells: HEK293, transient transfection with lipofectamine 2000; plasmid a gift from Prof; Liberles
T1 sequence (Q5QD14 1-337): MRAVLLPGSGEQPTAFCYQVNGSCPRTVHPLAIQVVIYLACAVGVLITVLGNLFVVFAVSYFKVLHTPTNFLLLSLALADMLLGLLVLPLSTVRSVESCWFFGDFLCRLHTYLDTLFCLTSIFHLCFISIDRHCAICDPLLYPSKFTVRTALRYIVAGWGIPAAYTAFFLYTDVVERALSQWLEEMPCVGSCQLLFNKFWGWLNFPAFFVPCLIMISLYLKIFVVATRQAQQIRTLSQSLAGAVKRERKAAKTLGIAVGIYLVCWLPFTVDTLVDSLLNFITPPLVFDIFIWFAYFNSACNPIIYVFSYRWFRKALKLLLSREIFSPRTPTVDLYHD

mTAAR5 [2] = target: T1, mTAAR5; experiment: BRET cAMP assay, agonistic activity; type: cell-based; conditions: HEK-293 cells transfected with EPAC cAMP BRET biosensor and mTAAR5; compared to saline
Description: (§1) TAAR5 is a receptor coupled to a stimulatory G protein, and its activation evokes cAMP production. Therefore, HEK293 cells were cotransfected with mTAAR5 and cAMP BRET biosensor. Light emission changes according to the cAMP fluctuation.[60] TMA (10 μM) was used as a reference mTAAR5 agonist to evaluate the activity of the compounds throughout the BRET-based assay and tested at 10 μM for either agonistic or antagonistic activity.
Human embryonic kidney 293cells (HEK293) were maintained in Dulbecco’s modified Eagle’s, high glucose, GlutaMAX^TM medium (Gibco^TM) supplemented with 10% 331 (v/v) of FBS and 1% penicillin/streptomycin at 37 °C in a humidified atmosphere at 95% air and 5% CO2. […]
BRET experiments were performed as described previously.[60] […] For the evaluation of the agonistic activity, the plate was read immediately after the addition of the compounds for approximately 20 min. For the evaluation of the antagonistic activity, the compounds were added 5 min before the addition of the control TAAR5 agonist, TMA, and read for approximately 20 min. […] The activity of a putative mTAAR5 antagonist was evaluated in its ability to decrease or abolish the increase of the cAMP levels induced by TMA. […] Readings were collected using Tecan Infinite instrument that allows the sequential signals integration detected in the 465 to 505 nm and 515 to 555 nm windows. […]

mTAAR5 [3] = target: T1, mTAAR5; conditions: cited from earlier work; for Potency pEC50 (negative log of EC50, modulating cAMP levels): mTAAR5 agonist; for Potency pIC50 (negative log of IC50, modulating cAMP levels): mTAAR5 antagonists
empty vector CTRL cells = experiment: BRET cAMP assay in cells without mTAAR5 (empty vector); type: cell-based, human; conditions: HEK-293 cells transfected with EPAC cAMP BRET biosensor and empty vector; listed as TMA
Description: as §1
Figure S6. Effect of TMA on cAMP level is mediated by mTAAR5. HEK-293 cells were transfected with
EPAC cAMP BRET biosensor with mTAAR5 or empty vector.
calculated as mean ± SEM of 3 independent experiments.
(1 picture or pasted object on this page, not shown here)

5-HT1A [4] = conditions: cited from earlier work
5-HT1E = system: 5-HT1E; set-up: method as in ref 6, 11-12 (SI); conditions: 11-12 (SI); cited from earlier work
5-HT1F = target: 5-HT1F; set-up: method as in ref 6, 11-12 (SI); conditions: 11-12 (SI); cited from earlier work
mTAAR5 [5] = target: T1, mTAAR5; experiment: BRET cAMP assay, antagonistic activity against TMA; type: cell-based; conditions: HEK293 cells cotransfected with mTAAR5 and cAMP BRET (EPAC) biosensor; against TMA 10 μM; 3 independent experiments
Description: as §1
Human embryonic kidney 293cells (HEK293) were maintained in Dulbecco’s modified Eagle’s, high glucose, GlutaMAX^TM medium (Gibco^TM) supplemented with 10% 331 (v/v) of FBS and 1% penicillin/streptomycin at 37 °C in a humidified atmosphere at 95% air and 5% CO2. For the bioluminescence resonance energy transfer (BRET) experiments, cells were plated in 10 cm dishes 24 h prior to the transient transfection of 7 μg of rho-TAAR5 (a generous gift from Prof. Liberles) and 7 μg of EPAC using lipofectamine 2000 (Invitrogen). Five h after transfection, cells were plated in poly-D-lysinecoated 96-well microplates (well-assay white plate with clear bottom, Greiner) at a density of 70,000 cells per well in Opti-MEM (Gibco^TM) and then cultured for an additional 24 h. The serotonergic ligand library was purchased from Enzo (SCREEN-WELL Serotonergic ligand library).
BRET experiments were performed as described previously.[60] All the compounds were tested at the initial concentration of 10 μM. For the evaluation of the agonistic activity, the plate was read immediately after the addition of the compounds for approximately 20 min. For the evaluation of the antagonistic activity, the compounds were added 5 min before the addition of the control TAAR5 agonist, TMA, and read for approximately 20 min. For the ones that were active, a concentration–response assessment was performed by using different concentrations of the antagonist. TMA is the standard mTAAR5 agonist and induces an increase in cAMP levels. The activity of a putative mTAAR5 antagonist was evaluated in its ability to decrease or abolish the increase of the cAMP levels induced by TMA. The IC50 was then calculated by measuring the effect of the compounds against the effect of TMA at 10 μM. Readings were collected using Tecan Infinite instrument that allows the sequential signals integration detected in the 465 to 505 nm and 515 to 555 nm windows. EPAC BRET biosensor was used to monitor cAMP levels. BRET ratio is plotted in the graphs. Increased cAMP specifically reflects an increase in the BRET ratio. The activity of an antagonist was evaluated in terms of the ability to counteract the TMA increase in the BRET ratio. The acceptor/donor ratio was calculated as previously described.[108] […] The data are representative of at least 3 independent experiments and are expressed as means ± SEM.

5-HT1A [6] = system: 5-HT1A; set-up: method as in ref 13-14 (SI); conditions: ref 13-14 (SI); cited from earlier work
5-HT4 = conditions: cited from earlier work

Compound: CCCN(CCC)[C@@H]1CCc2c(OC)cccc2[C@@H]1C [(+)-UH 232]
- activity at mTAAR5 in previous HTS campaigns (mTAAR5 [1]): inactive

Compound: CN(C)C [Compound 1, Trimethylamine]
- effect on cAMP level with mTAAR5 expressed (mTAAR5 [2]): increases cAMP levels
- Potency pEC50 (negative log of EC50, modulating cAMP levels) (mTAAR5 [3]): pEC50: 5.49
- effect on cAMP level in the absence of mTAAR5 (empty vector CTRL cells): not in empty vector CTRL cells; also recorded: no cAMP fluctuation

Compound: C[N+](C)(C)CCC(=O)c1cccc2ccccc12 [Compound 2, Trimethyl-(3-naphthalen-1-yl-3-oxopropyl)azanium]
- Potency pEC50 (negative log of EC50, modulating cAMP levels) (mTAAR5 [3]): pEC50: 5.82

Compound: COc1ccccc1N1CCN(CC2CCC(c3ccccc3)(c3ccccc3)O2)CC1 (centres unmarked) [Compound 3, 1-[(5,5-Diphenyloxolan-2-yl)methyl]-4-(2-methoxyphenyl)piperazine]
- 5-HT1A pKi (5-HT1A [4]; ref 10 (SI)): 7.64
- Potency pIC50 (negative log of IC50, modulating cAMP levels) (mTAAR5 [3]): pIC50: 4.36

Compound: COc1ccccc1OCCNCC1COC(c2ccccc2)(c2ccccc2)O1 (centres unmarked) [Compound 4]
- 5-HT1A pKi (5-HT1A [4]; ref 5 (SI)): 9.22
- Potency pIC50 (negative log of IC50, modulating cAMP levels) (mTAAR5 [3]): pIC50: 3.54

Compound: CN1CCC(c2c[nH]c3ccc(O)cc23)CC1 [Compound 5, 3-(1-methylpiperidin-4-yl)-1H-indol-5-ol]
- 5-HT1E pEC50 (5-HT1E): 8.16
- 5-HT1F pKi (5-HT1F): 8.15
- IC50 (mTAAR5 [5]): 2.7 µM

Compound: CCCN(CCC)C1CCc2cccc(O)c2C1 (centres unmarked) [Compound 6, 7-(dipropylamino)-5,6,7,8-tetrahydronaphthalen-1-ol]
- 5-HT1A pEC50 (5-HT1A [6]): 7.24
- IC50 (mTAAR5 [5]): 3.8 µM

- IC50 (mTAAR5 [5]): 4.7 µM
Compound: COc1cc(N)c(Cl)cc1C(=O)OCCCN1CCCCC1 [Compound 7, 3-(piperidin-1-yl)propyl 4-amino-5-chloro-2-methoxybenzoate]
- 5-HT4 pIC50 (5-HT4; ref 15-16 (SI)): 6.31

- IC50 (mTAAR5 [5]): 13 µM
Compound: CCN(CC)CCOC(=O)c1cc(Cl)c(N)cc1OC [Compound 8, 2-(diethylamino)ethyl-4-amino-5-chloro-2-methoxybenzoate]
- 5-HT4 pIC50 (5-HT4; ref 17 (SI)): 6.11

Compound: CCN(CC)CCNC(=O)c1cc(Cl)c(N)cc1OC [Metoclopramide]
- activity at mTAAR5 in previous HTS campaigns (mTAAR5 [1]): inactive

Compound: N-[2-(piperidinylamino)ethyl]-4-iodobenzamide
- activity at mTAAR5 in previous HTS campaigns (mTAAR5 [1]): inactive
